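Results reflect a 48-hour exposure of cells in 96-well plates to compound at five concentrations. Here, GI50 denotes the concentration required for 50% inhibition of growth. Definition used: TGI = concentration required for complete inhibition of growth.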
How the values were obtained:
Assay in all cases: inhibition of tumour cell growth, NCI panel, 48 h
NCI-H460 lung = tested on: NCI-H460 lung
T-47D breast = tested on: T-47D breast
RXF 393 renal = tested on: RXF 393 renal
BT-549 breast = tested on: BT-549 breast
SF-539 CNS = tested on: SF-539 CNS
786-0 renal = tested on: 786-0 renal
TK-10 renal = tested on: TK-10 renal
HL-60(TB) leukemia = tested on: HL-60(TB) leukemia
SNB-19 CNS = tested on: SNB-19 CNS
MOLT-4 leukemia = tested on: MOLT-4 leukemia
HCC-2998 colon = tested on: HCC-2998 colon
OVCAR-4 ovarian = tested on: OVCAR-4 ovarian
KM12 colon = tested on: KM12 colon
HCT-116 colon = tested on: HCT-116 colon
HT29 colon = tested on: HT29 colon
MDA-MB-231 breast = tested on: MDA-MB-231 breast
A549 NSCLC = tested on: A549 NSCLC
SR leukemia = tested on: SR leukemia
MALME-3M melanoma = tested on: MALME-3M melanoma
ACHN renal = tested on: ACHN renal
SK-MEL-2 melanoma = tested on: SK-MEL-2 melanoma
SF-268 CNS = tested on: SF-268 CNS
SK-MEL-5 melanoma = tested on: SK-MEL-5 melanoma
SF-295 CNS = tested on: SF-295 CNS
UACC-257 melanoma = tested on: UACC-257 melanoma
K-562 leukemia = tested on: K-562 leukemia
EKVX NSCLC = tested on: EKVX NSCLC
LOX IMVI melanoma = tested on: LOX IMVI melanoma

## c1n[nH]cc1-c1nc2ccc3[nH]ncc3c2c2c1CCCC2
NCI-H460 lung
  GI50: 783 nM
  TGI: 4850 nM
T-47D breast
  GI50: 2210 nM
  TGI: 8180 nM
RXF 393 renal
  GI50: 1170 nM
  TGI: 2770 nM
BT-549 breast
  GI50: 1220 nM
  TGI: 2490 nM
SF-539 CNS
  GI50: 1380 nM
  TGI: 3090 nM
786-0 renal
  GI50: 1410 nM
  TGI: 2720 nM
TK-10 renal
  GI50: 766 nM
  TGI: 8200 nM
HL-60(TB) leukemia
  GI50: 1490 nM
  TGI: 5590 nM
SNB-19 CNS
  GI50: 2780 nM
  TGI: 9850 nM
MOLT-4 leukemia
  GI50: 1990 nM
  TGI: 7880 nM
HCC-2998 colon
  GI50: 1640 nM
  TGI: 7310 nM
OVCAR-4 ovarian
  GI50: 2350 nM
  TGI: 7930 nM
KM12 colon
  GI50: 2910 nM
  TGI: 8900 nM
HCT-116 colon
  GI50: 635 nM
  TGI: 7920 nM
HT29 colon
  GI50: 1670 nM
  TGI: 10900 nM
MDA-MB-231 breast
  GI50: 1960 nM
  TGI: 12000 nM
A549 NSCLC
  GI50: 2010 nM
  TGI: 12300 nM
SR leukemia
  GI50: 287 nM
  TGI: 5450 nM
MALME-3M melanoma
  GI50: 1560 nM
  TGI: 4760 nM
ACHN renal
  GI50: 560 nM
  TGI: 10300 nM
SK-MEL-2 melanoma
  GI50: 1260 nM
  TGI: 3120 nM
SF-268 CNS
  GI50: 1950 nM
  TGI: 4630 nM
SK-MEL-5 melanoma
  GI50: 1280 nM
  TGI: 3220 nM
SF-295 CNS
  GI50: 2110 nM
  TGI: 8490 nM
UACC-257 melanoma
  GI50: 1860 nM
  TGI: 6640 nM
K-562 leukemia
  GI50: 3010 nM
  TGI: > 100000 nM
EKVX NSCLC
  GI50: 887 nM
  TGI: 3330 nM
LOX IMVI melanoma
  GI50: 1150 nM
  TGI: 2910 nM
